One block for each compound: values may come before it.
What was measured:
Assay in all cases: KinaseProfiler enzyme profiling
Assay type in all cases: biochemical
[1] = molecular target: T1, EphA2(h) (Homo sapiens, UniProt P29317)
T1 construct: purchased Eurofins KinaseProfiler
Method in brief: (§1)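 Panel profiling of erianin at 100 nM over 70 kinases in vitro, performed with 2 repetitions.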

[2] = molecular target: T2, BRK(h) (Homo sapiens, UniProt Q13882)
T2 construct: purchased Eurofins KinaseProfiler
Method in brief: as §1

[3] = molecular target: T3, MKK4(m) (Mus musculus, UniProt P47809)
T3 construct: purchased Eurofins KinaseProfiler
Method in brief: as §1

[4] = molecular target: T4, EphB2(h) (Homo sapiens, UniProt P29323)
T4 construct: purchased Eurofins KinaseProfiler
Method in brief: as §1

[5] = molecular target: T5, cKit(h) (Homo sapiens, UniProt P10721)
T5 construct: purchased Eurofins KinaseProfiler
Method in brief: as §1

[6] = molecular target: T6, LKB1(h) (Homo sapiens, UniProt Q15831)
T6 construct: purchased Eurofins KinaseProfiler
Method in brief: as §1

[7] = molecular target: T7, Aurora-A(h) (Homo sapiens, UniProt O14965)
T7 construct: purchased Eurofins KinaseProfiler
Method in brief: as §1

[8] = molecular target: T8, CK1γ2(h) (Homo sapiens, UniProt P78368)
T8 construct: purchased Eurofins KinaseProfiler
Method in brief: as §1

[9] = molecular target: T9, CSK(h) (Homo sapiens, UniProt P41240)
T9 construct: purchased Eurofins KinaseProfiler
Method in brief: as §1

[10] = molecular target: T10, DDR2(h) (Homo sapiens, UniProt Q16832)
T10 construct: purchased Eurofins KinaseProfiler
Method in brief: as §1

[11] = molecular target: T11, MKK7β(h) (Homo sapiens, UniProt O14733)
T11 construct: purchased Eurofins KinaseProfiler
Method in brief: as §1

[12] = molecular target: T12, HIPK3(h) (Homo sapiens, UniProt Q9H422)
T12 construct: purchased Eurofins KinaseProfiler
Method in brief: as §1

[13] = molecular target: T13, Flt4(h) (Homo sapiens, UniProt P35916)
T13 construct: purchased Eurofins KinaseProfiler
Method in brief: as §1

[14] = molecular target: T14, FGFR2(h) (Homo sapiens, UniProt P21802)
T14 construct: purchased Eurofins KinaseProfiler
Method in brief: as §1

[15] = molecular target: T15, ARK5(h) (Homo sapiens, UniProt O60285)
T15 construct: purchased Eurofins KinaseProfiler
Method in brief: as §1

[16] = molecular target: T16, EGFR(T790M)(h) (Homo sapiens, UniProt P00533, T790M)
T16 construct: purchased Eurofins KinaseProfiler
Method in brief: as §1

[17] = molecular target: T17, EGFR(L858R)(h) (Homo sapiens, UniProt P00533, L858R)
T17 construct: purchased Eurofins KinaseProfiler
Method in brief: as §1

[18] = molecular target: T18, MELK(h) (Homo sapiens, UniProt Q14680)
T18 construct: purchased Eurofins KinaseProfiler
Method in brief: as §1

[19] = molecular target: T19, Flt1(h) (Homo sapiens, UniProt P17948); conditions: 100 nM
T19 construct: purchased Eurofins KinaseProfiler
Method in brief: as §1

[20] = molecular target: T20, Fgr(h) (Homo sapiens, UniProt P09769); conditions: 100 nM
T20 construct: purchased Eurofins KinaseProfiler
Method in brief: as §1

[21] = molecular target: T21, Snk(h) (Homo sapiens, UniProt Q9NYY3); conditions: 100 nM
T21 construct: purchased Eurofins KinaseProfiler
Method in brief: as §1

[22] = molecular target: T22, Rsk1(h) (Homo sapiens, UniProt Q15418)
T22 construct: purchased Eurofins KinaseProfiler
Method in brief: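 A 70-kinase in vitro panel received erianin at 100 nM; measurements were repeated twice.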

[23] = molecular target: T23, CDK5/p25(h) (Homo sapiens, UniProt Q00535); conditions: 100 nM
T23 construct: purchased Eurofins KinaseProfiler
Method in brief: as §1

[24] = molecular target: T24, EphA1(h) (Homo sapiens, UniProt P21709); conditions: 100 nM
T24 construct: purchased Eurofins KinaseProfiler
Method in brief: as §1

[25] = molecular target: T25, Pim-2(h) (Homo sapiens, UniProt Q9P1W9); conditions: 100 nM
T25 construct: purchased Eurofins KinaseProfiler
Method in brief: as §1

[26] = molecular target: T26, A-Raf(h) (Homo sapiens, UniProt P10398); conditions: 100 nM
T26 construct: purchased Eurofins KinaseProfiler
Method in brief: as §1

[27] = molecular target: T27, Pim-3(h) (Homo sapiens, UniProt Q86V86); conditions: 100 nM
T27 construct: purchased Eurofins KinaseProfiler
Method in brief: as §1

[28] = molecular target: T28, CaMKIIδ(h) (Homo sapiens, UniProt Q13557); conditions: 100 nM
T28 construct: purchased Eurofins KinaseProfiler
Method in brief: as §1

[29] = molecular target: T29, STK25(h) (Homo sapiens, UniProt O00506)
T29 construct: purchased Eurofins KinaseProfiler
Method in brief: as §1

[30] = molecular target: T30, TAO1(h) (Homo sapiens, UniProt Q7L7X3)
T30 construct: purchased Eurofins KinaseProfiler
Method in brief: as §1

[31] = molecular target: T31, CDK7/cyclinH/MAT1(h) (Homo sapiens, UniProt P50613)
T31 construct: purchased Eurofins KinaseProfiler
Method in brief: as §1

[32] = molecular target: T32, ErbB4(h) (Homo sapiens, UniProt Q15303)
T32 construct: purchased Eurofins KinaseProfiler
Method in brief: as §1

[33] = molecular target: T33, ATR/ATRIP(h) (Homo sapiens, UniProt Q13535)
T33 construct: purchased Eurofins KinaseProfiler
Method in brief: as §1

[34] = molecular target: T34, MAPKAP-K2(h) (Homo sapiens, UniProt P49137)
T34 construct: purchased Eurofins KinaseProfiler
Method in brief: as §1

[35] = molecular target: T35, DMPK(h) (Homo sapiens, UniProt Q09013)
T35 construct: purchased Eurofins KinaseProfiler
Method in brief: as §1

[36] = molecular target: T36, CDK18/cyclinY(h) (Homo sapiens, UniProt Q07002)
T36 construct: purchased Eurofins KinaseProfiler
Method in brief: as §1

[37] = molecular target: T37, Lck(h) (Homo sapiens, UniProt P06239)
T37 construct: purchased Eurofins KinaseProfiler
Method in brief: as §1

[38] = molecular target: T38, NEK3(h) (Homo sapiens, UniProt P51956)
T38 construct: purchased Eurofins KinaseProfiler
Method in brief: as §1

[39] = molecular target: T39, SAPK2b(h) (Homo sapiens, UniProt Q15759)
T39 construct: purchased Eurofins KinaseProfiler
Method in brief: as §1

[40] = molecular target: T40, NEK7(h) (Homo sapiens, UniProt Q8TDX7)
T40 construct: purchased Eurofins KinaseProfiler
Method in brief: as §1

[41] = molecular target: T41, TAO3(h) (Homo sapiens, UniProt Q9H2K8)
T41 construct: purchased Eurofins KinaseProfiler
Method in brief: as §1

[42] = molecular target: T42, MST1(h) (Homo sapiens, UniProt Q13043)
T42 construct: purchased Eurofins KinaseProfiler
Method in brief: as §1

T20 sequence (P09769 whole entry): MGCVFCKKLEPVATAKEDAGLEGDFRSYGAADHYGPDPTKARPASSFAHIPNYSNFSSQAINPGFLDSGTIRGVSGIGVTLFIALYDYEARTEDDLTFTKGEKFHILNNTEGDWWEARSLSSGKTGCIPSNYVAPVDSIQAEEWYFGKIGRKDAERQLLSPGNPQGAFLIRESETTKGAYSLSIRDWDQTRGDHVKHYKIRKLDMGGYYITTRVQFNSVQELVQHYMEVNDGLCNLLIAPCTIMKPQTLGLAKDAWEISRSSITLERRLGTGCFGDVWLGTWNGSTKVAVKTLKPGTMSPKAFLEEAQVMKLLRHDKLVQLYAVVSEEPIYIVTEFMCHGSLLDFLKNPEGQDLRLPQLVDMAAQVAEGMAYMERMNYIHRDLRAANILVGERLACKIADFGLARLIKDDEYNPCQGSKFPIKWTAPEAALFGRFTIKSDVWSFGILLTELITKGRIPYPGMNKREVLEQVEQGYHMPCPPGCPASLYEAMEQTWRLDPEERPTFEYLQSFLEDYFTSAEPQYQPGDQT
T28 sequence (Q13557 whole entry): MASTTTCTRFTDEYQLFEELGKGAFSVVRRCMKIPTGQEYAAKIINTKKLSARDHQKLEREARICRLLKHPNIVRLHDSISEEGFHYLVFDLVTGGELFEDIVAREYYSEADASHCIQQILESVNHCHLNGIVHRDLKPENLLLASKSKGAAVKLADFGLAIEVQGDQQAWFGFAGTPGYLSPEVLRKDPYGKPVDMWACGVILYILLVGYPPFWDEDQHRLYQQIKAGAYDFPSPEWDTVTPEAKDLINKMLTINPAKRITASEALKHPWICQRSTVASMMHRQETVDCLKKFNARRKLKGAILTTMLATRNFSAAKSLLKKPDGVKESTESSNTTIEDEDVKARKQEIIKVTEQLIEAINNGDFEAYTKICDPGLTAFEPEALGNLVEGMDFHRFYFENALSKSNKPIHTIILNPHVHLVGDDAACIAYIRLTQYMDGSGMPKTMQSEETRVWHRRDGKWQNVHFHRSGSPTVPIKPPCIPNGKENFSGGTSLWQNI
T32 sequence (Q15303 26-1308): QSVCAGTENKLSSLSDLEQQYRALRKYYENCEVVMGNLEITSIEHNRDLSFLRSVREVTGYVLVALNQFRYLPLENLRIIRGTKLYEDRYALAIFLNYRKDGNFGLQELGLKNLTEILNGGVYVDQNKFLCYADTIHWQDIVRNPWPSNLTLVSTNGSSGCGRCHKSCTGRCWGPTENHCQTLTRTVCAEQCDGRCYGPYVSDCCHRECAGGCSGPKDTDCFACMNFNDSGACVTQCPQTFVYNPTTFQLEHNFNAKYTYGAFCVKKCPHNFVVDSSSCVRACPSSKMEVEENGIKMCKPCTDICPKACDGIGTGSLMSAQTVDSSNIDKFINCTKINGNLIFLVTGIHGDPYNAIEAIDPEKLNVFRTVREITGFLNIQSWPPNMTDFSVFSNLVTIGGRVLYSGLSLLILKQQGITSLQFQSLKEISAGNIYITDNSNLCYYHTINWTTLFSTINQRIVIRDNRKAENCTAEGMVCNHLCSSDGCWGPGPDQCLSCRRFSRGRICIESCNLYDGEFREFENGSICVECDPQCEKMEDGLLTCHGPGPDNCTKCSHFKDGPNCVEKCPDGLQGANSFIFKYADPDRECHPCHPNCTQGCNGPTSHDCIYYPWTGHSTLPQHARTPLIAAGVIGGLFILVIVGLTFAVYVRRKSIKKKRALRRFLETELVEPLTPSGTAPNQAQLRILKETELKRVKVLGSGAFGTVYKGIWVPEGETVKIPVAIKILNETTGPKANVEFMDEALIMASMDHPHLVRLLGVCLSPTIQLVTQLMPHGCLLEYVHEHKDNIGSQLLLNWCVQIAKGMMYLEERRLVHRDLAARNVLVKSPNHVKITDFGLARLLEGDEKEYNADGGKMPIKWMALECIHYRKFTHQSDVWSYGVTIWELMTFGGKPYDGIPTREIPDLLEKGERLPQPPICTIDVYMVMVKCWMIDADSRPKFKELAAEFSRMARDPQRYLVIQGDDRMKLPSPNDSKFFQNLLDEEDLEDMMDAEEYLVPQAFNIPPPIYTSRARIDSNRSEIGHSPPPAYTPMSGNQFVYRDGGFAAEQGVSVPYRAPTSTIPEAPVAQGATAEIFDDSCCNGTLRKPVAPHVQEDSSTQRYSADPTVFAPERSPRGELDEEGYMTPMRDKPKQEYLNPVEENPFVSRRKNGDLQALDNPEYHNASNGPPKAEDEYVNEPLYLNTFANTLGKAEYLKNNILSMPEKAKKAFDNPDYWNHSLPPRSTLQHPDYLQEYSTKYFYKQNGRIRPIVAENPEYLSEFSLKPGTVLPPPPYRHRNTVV
T36 sequence (Q07002 whole entry): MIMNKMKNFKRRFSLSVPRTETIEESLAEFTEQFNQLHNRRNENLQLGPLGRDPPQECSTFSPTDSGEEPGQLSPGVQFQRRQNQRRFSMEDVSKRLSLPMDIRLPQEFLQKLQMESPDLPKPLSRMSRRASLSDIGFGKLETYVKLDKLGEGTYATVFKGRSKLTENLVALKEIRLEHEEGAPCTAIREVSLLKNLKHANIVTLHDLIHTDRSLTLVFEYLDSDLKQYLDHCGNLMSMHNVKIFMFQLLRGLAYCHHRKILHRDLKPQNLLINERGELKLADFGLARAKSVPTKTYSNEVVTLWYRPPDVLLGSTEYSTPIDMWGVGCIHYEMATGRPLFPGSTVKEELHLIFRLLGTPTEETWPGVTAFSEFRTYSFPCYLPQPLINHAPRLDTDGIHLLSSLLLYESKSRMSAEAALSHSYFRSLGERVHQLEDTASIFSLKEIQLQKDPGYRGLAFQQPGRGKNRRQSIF
T36 sequence (Q8ND76 whole entry partner): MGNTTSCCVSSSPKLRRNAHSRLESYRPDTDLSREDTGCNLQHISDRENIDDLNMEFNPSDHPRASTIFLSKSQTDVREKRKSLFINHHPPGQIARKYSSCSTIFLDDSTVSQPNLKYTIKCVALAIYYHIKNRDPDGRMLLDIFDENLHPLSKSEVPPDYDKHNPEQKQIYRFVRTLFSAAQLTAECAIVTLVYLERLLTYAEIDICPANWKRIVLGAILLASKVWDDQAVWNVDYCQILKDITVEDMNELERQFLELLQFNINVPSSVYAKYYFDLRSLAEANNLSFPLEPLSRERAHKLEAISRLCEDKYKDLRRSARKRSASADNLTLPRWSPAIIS
T41 sequence (Q9H2K8 whole entry): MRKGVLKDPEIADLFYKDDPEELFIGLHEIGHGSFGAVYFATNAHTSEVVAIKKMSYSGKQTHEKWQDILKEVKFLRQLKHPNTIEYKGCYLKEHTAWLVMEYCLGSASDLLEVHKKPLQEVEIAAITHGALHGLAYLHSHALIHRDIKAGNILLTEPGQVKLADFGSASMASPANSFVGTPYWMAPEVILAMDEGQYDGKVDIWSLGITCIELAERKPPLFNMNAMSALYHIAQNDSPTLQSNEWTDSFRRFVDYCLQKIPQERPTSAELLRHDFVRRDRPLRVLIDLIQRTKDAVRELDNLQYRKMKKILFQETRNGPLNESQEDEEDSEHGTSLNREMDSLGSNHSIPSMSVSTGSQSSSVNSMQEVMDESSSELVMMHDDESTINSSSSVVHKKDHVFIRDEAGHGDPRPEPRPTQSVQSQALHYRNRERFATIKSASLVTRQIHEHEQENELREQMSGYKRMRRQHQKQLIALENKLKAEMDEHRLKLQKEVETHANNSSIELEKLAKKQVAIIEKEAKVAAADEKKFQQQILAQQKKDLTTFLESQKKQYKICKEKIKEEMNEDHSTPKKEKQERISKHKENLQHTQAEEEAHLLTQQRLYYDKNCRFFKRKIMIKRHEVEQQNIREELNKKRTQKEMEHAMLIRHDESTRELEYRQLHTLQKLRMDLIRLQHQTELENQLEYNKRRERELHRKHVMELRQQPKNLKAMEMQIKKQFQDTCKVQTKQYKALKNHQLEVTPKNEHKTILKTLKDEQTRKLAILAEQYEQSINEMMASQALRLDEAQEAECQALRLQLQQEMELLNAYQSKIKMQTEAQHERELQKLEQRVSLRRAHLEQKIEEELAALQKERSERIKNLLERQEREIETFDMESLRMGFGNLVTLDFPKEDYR
T15 sequence (O60285 whole entry): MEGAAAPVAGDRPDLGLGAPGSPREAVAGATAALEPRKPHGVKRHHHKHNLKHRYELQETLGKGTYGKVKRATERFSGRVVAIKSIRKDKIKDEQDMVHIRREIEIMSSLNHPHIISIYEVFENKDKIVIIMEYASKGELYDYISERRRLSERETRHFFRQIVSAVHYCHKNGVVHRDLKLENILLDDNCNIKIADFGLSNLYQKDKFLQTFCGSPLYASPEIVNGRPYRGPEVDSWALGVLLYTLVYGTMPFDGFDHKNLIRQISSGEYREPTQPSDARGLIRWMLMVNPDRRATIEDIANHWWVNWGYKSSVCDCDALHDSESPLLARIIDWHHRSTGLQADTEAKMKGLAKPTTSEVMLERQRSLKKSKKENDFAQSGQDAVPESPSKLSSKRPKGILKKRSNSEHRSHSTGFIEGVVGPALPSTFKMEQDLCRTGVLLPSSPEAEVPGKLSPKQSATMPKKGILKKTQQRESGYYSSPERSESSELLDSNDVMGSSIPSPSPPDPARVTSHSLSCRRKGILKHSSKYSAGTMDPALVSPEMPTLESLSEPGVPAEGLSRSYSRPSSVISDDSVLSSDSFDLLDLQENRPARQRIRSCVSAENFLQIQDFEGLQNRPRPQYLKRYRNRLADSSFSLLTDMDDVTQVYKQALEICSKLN
T25 sequence (Q9P1W9 whole entry): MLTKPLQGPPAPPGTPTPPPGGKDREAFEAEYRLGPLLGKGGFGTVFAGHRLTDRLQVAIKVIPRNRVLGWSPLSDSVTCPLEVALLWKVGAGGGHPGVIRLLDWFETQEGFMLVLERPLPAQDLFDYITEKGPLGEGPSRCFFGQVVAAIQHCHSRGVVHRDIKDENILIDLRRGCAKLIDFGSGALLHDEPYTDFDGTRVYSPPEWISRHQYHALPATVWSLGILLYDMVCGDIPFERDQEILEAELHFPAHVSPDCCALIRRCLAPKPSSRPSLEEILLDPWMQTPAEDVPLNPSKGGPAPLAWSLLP

activity at 10 µM [1]: 97% | activity at 10 µM [2]: 105% | activity at 10 µM [3]: 101% | activity at 10 µM [4]: 98% | activity at 10 µM [5]: 93% | activity at 10 µM [6]: 96% | activity at 10 µM [7]: 124% | activity at 10 µM [8]: 108% | activity at 10 µM [9]: 100% | activity at 10 µM [10]: 106% | activity at 10 µM [11]: 95% | activity at 10 µM [12]: 106% | activity at 10 µM [13]: 87% | activity at 10 µM [14]: 110% | activity at 10 µM [15]: 97% | activity at 10 µM [16]: 117% | activity at 10 µM [17]: 107% | activity at 10 µM [18]: 100%
SMILES: COc1cc2oc(-c3ccc(O)c(O)c3)cc(=O)c2c(O)c1OC [Cirsiliol]

SMILES: COc1ccc(CCc2cc(OC)c(OC)c(OC)c2)cc1O [Erianin]
activity at 0.1 µM [19]: 117% | activity at 0.1 µM [20]: 91% | activity at 0.1 µM [21]: 109% | activity at 0.1 µM [22]: 90% | activity at 0.1 µM [23]: 102% | activity at 0.1 µM [24]: 101% | activity at 0.1 µM [25]: 103% | activity at 0.1 µM [26]: 109% | activity at 0.1 µM [27]: 91% | activity at 0.1 µM [28]: 103%

activity at 10 µM [29]: 105% | activity at 10 µM [30]: 64% | activity at 10 µM [31]: 69% | activity at 10 µM [32]: 91% | activity at 10 µM [33]: 76% | activity at 10 µM [34]: 85% | activity at 10 µM [35]: 104% | activity at 10 µM [36]: 65% | activity at 10 µM [37]: 89% | activity at 10 µM [38]: 64% | activity at 10 µM [39]: 102% | activity at 10 µM [40]: 101% | activity at 10 µM [41]: 66% | activity at 10 µM [42]: 65%
SMILES: C=C1C(=O)[C@]23[C@H](O)[C@H]1CC[C@H]2[C@@]12CO[C@]3(O)[C@@H](O)[C@@H]1C(C)(C)CC[C@@H]2O [Oridonin]

— publication PMC9986241 (Signal Transduction and Targeted Therapy, 2023)
